The text below walks through data of patent publication US12600724B2, “Indole alkaloid and preparation method and use thereof” (NANJING UNIVERSITY OF CHINESE MEDICINE, priority 2022, dated 2026).

For one test, the system named is primary DRG neuron. In words: Axon growth of primary DRG neurons (immunofluorescence, Neuro J). Particulars: 10 μm, 24 hours. It is filed as cell-based, C57BL/6J mice. How it is done: Diabetic peripheral neuropathy involved a sensory neuron first, and a main pathological change was axonal atrophy and degeneration, or even disappearance. […] Therefore, the compounds in the examples were added with the primary DRG neuron to incubate for a certain period of time, then the axon growth of the DRG neuron was detected by immunofluorescence, and an axon length was quantified by Neuro J, so as to evaluate the promotion effect of the compound on the axon growth of the peripheral sensory neuron.
Primary antibodies of mice anti-β-tubulin III used for fluorescent staining were purchased from Sigma Company, cell culture reagents were all purchased from Gibco Company, and DRG neuronal cells were taken from C57BL/6J mice. Specific experimental steps were as follows: fresh DRG of the C57 mice was extracted to digest into a single-cell suspension and then inoculated into a culture plate for adherent culture overnight, with vinblastine as a positive drug, the to-be-detected compounds S1 to S87 ([…]) synthesized in the above examples were given to incubate for 24 hours, then an original culture medium was removed, 4% paraformaldehyde was added into each well to fix for 15 minutes after PBS washing, the mixture was permeabilized with 0.3% TritonX-100 for 5 minutes and sealed at room temperature with 4% BSA for 1 hour, a primary antibody (1:1000) was incubated at 4° C. overnight, a goat anti-mouse fluorescent secondary antibody (1:300) was incubated at room temperature in the dark for 1 hour, and a sealed slide was imaged by a fluorescence microscope (Leica). According to the image, a total axon length of a single DRG neuron was tracked by a Neuro J plug-in in Image J software, and a multiple of the total axon length relative to that of the blank control group was calculated.
As for `CC[C@@]12C=C(C(=O)NCC(=O)OCCOCCOCCOCCOCCO)n3c4c(c5ccccc53)CCN(CCC1)[C@H]42` [Compound S27], the “Promotion of axon growth of the primary DRG neuron compared with the positive drug (in words)” value was “more outstanding effect”.
The same measure, in the same setting: to `CC[C@@]12C=C(C(=O)OCCCC(=O)OCCOCCOCCOCCOCCOCCO)n3c4c(c5ccccc53)CCN(CCC1)[C@H]42` [Compound S62] belongs “more outstanding effect”; to `CC[C@@]12C=C(C(=O)NCC(=O)OCCOCCOCCOCCOC)n3c4c(c5ccccc53)CCN(CCC1)[C@H]42` [Compound S3], “more outstanding effect”.

Staying with this test, now noted: Mus musculus, 24 hours, multiple of total axon length of a single DRG neuron relative to blank control group.
What is called fold induction is the ratio of treated to control signal. A high value points to a large rise in signal. Compound `CC[C@@]12C=C(C(=O)NCC(=O)N[C@@H](CC(N)=O)C(=O)OCCOCCOCCOCCO)n3c4c(c5ccccc53)CCN(CCC1)[C@H]42` [Compound S49] came in with a fold induction at 10 µM of 12.
`CC[C@@]12C=C(C(=O)N[C@@H](CN)C(=O)O)n3c4c(c5ccccc53)CCN(CCC1)[C@H]42` [Compound S72] yielded a fold induction at 10 µM of 11.3.
On the same count and under the same terms, for `CC[C@@]12C=C(C(=O)N[C@H](C(=O)O)C(C)C)n3c4c(c5ccccc53)CCN(CCC1)[C@H]42` [Compound S74] the value was 10.9.
On the same count and under the same terms, for `CC[C@@]12C=C(C(=O)OCCC(=O)OCCOCCO)n3c4c(c5ccccc53)CCN(CCC1)[C@H]42` [Compound S56] the value was 11.3; for `CC[C@@]12C=C(C(=O)NCC(=O)OCCOCCOCCO)n3c4c(c5ccccc53)CCN(CCC1)[C@H]42` [Compound S25], 12.3; for `CC[C@@]12C=C(C(=O)OCCC(=O)OCCOCCOCCOCCOCCOCCO)n3c4c(c5ccccc53)CCN(CCC1)[C@H]42` [Compound S60], 12.
`CC[C@@]12C=C(C(=O)N[C@@H](CC(C)C)C(=O)O)n3c4c(c5ccccc53)CCN(CCC1)[C@H]42` [Compound S67] came in with a fold induction at 10 µM of 11.3.
As to `CC[C@@]12C=C(C(=O)N[C@@H](CC(N)=O)C(=O)OCCOCCOCCOCCO)n3c4c(c5ccccc53)CCN(CCC1)[C@H]42` [Compound S41], the fold induction at 10 µM was 11.
Turning to `CC[C@@]12C=C(C(=O)NCC(=O)N[C@@H](C)C(=O)OCCOCCOCCO)n3c4c(c5ccccc53)CCN(CCC1)[C@H]42` [Compound S47], the fold induction at 10 µM amounted to 11.2.
On the same count and under the same terms, to `CC[C@@]12C=C(C(=O)N[C@@H](CO)C(=O)OCCOCCOCCOCCOC)n3c4c(c5ccccc53)CCN(CCC1)[C@H]42` [Compound S15] belongs 11.3; to `CC[C@@]12C=C(C(=O)N[C@@H](C)C(=O)OCCOCCOCCOCCO)n3c4c(c5ccccc53)CCN(CCC1)[C@H]42` [Compound S29], 12.5; to `CC[C@@]12C=C(C(=O)N[C@@H](Cc3ccccc3)C(=O)O)n3c4c(c5ccccc53)CCN(CCC1)[C@H]42` [Compound S75], 10.7.
Same read-out and setting: to `CC[C@@]12C=C(C(=O)N[C@@H](CC(N)=O)C(=O)O)n3c4c(c5ccccc53)CCN(CCC1)[C@H]42` [Compound S71] belongs 10.5.
Regarding `CC[C@@]12C=C(C(=O)NCC(=O)N[C@@H](Cc3ccc(O)cc3)C(=O)O)n3c4c(c5ccccc53)CCN(CCC1)[C@H]42` [Compound S78], the fold induction at 10 µM came out at 10.2.
The compound `CC[C@@]12C=C(C(=O)OCCCC(=O)OCCOCCOCCOCCO)n3c4c(c5ccccc53)CCN(CCC1)[C@H]42` [Compound S61] displayed a fold induction at 10 µM of 11.3.
In turn, `CC[C@@]12C=C(C(=O)NCC(=O)N[C@@H](CC(N)=O)C(=O)O)n3c4c(c5ccccc53)CCN(CCC1)[C@H]42` [Compound S77] returned a fold induction at 10 µM of 10.8.
Same read-out and setting: for `CC[C@@]12C=C(C(=O)N[C@@H](CC(C)C)C(=O)OCCOCCOCCOCCOC)n3c4c(c5ccccc53)CCN(CCC1)[C@H]42` [Compound S13] the value was 11.6; for `CC[C@@]12C=C(C(=O)N[C@H](C(=O)OCCOCCOCCOCCO)C(C)O)n3c4c(c5ccccc53)CCN(CCC1)[C@H]42` (stereo partly drawn) [Compound S35], 12.1.
`CC[C@@]12C=C(C(=O)N[C@@H](CO)C(=O)OCCOCCOCCOCCO)n3c4c(c5ccccc53)CCN(CCC1)[C@H]42` [Compound S34] gave a fold induction at 10 µM of 10.5.
`CC[C@@]12C=C(C(=O)NCC(=O)OCCOCCOCCOCCOCCO)n3c4c(c5ccccc53)CCN(CCC1)[C@H]42` [Compound S27] returned a fold induction at 10 µM of 12.9.
With `CC[C@@]12C=C(C(=O)NCC(=O)N[C@@H](CO)C(=O)O)n3c4c(c5ccccc53)CCN(CCC1)[C@H]42` [Compound S81], the fold induction at 10 µM came to 11.9.
Turning to `CC[C@@]12C=C(C(=O)N[C@@H](CC(C)C)C(=O)OCCOCCOCCOCCO)n3c4c(c5ccccc53)CCN(CCC1)[C@H]42` [Compound S31], the fold induction at 10 µM stood at 11.8.
The same measure, in the same setting: for `CC[C@@]12C=C(C(=O)NCC(=O)OCCO)n3c4c(c5ccccc53)CCN(CCC1)[C@H]42` [Compound S23] the value was 10.3; for `CC[C@@]12C=C(C(=O)N[C@@H](CCC(=O)O)C(=O)OCCOCCOCCOCCO)n3c4c(c5ccccc53)CCN(CCC1)[C@H]42` [Compound S43], 11.2; for `CC[C@@]12C=C(C(=O)OCCCC(=O)OCCOCCOCCOCCOCCOCCO)n3c4c(c5ccccc53)CCN(CCC1)[C@H]42` [Compound S62], 12.8.
On to `CC[C@@]12C=C(C(=O)NCC(=O)OCCOCCO)n3c4c(c5ccccc53)CCN(CCC1)[C@H]42` [Compound S24], for which the fold induction at 10 µM worked out at 11.7.
Turning to `CC[C@@]12C=C(C(=O)N[C@@H](CN)C(=O)OCCOCCOCCOCCO)n3c4c(c5ccccc53)CCN(CCC1)[C@H]42` [Compound S39], the fold induction at 10 µM was determined as 11.2.
`CC[C@@]12C=C(C(=O)N[C@@H](Cc3c[nH]cn3)C(=O)OCCOCCOCCOCCO)n3c4c(c5ccccc53)CCN(CCC1)[C@H]42` [Compound S45]: the fold induction at 10 µM is 10.5.
`CC[C@@]12C=C(C(=O)NCC(=O)N[C@@H](CC(C)C)C(=O)OC)n3c4c(c5ccccc53)CCN(CCC1)[C@H]42` [Compound S86]: the fold induction at 10 µM was 11.
`CC[C@@]12C=C(C(=O)N[C@@H](CS)C(=O)OCCOCCOCCOCCO)n3c4c(c5ccccc53)CCN(CCC1)[C@H]42` [Compound S46] showed a fold induction at 10 µM of 10.7.
Take `CC[C@@]12C=C(C(=O)NCC(=O)OCCOCCOCCOCCOC)n3c4c(c5ccccc53)CCN(CCC1)[C@H]42` [Compound S3]: the fold induction at 10 µM stood at 13.2.
`CC[C@@]12C=C(C(=O)NCC(=O)N[C@H](C(=O)OCCOCCOCCOCCO)C(C)O)n3c4c(c5ccccc53)CCN(CCC1)[C@H]42` (stereo partly drawn) [Compound S52] came in with a fold induction at 10 µM of 9.5.
`CC[C@@]12C=C(C(=O)NCC(=O)OC)n3c4c(c5ccccc53)CCN(CCC1)[C@H]42` [Compound S83] returned a fold induction at 10 µM of 12.7.
Consider `CC[C@@]12C=C(C(=O)N[C@@H](Cc3cc4ccccc4[nH]3)C(=O)OCCOCCOCCOCCO)n3c4c(c5ccccc53)CCN(CCC1)[C@H]42` [Compound S37], for which the fold induction at 10 µM was 10.8.
On the same count and under the same terms, to `CC[C@@]12C=C(C(=O)NCC(=O)OCCOCCOCCOC)n3c4c(c5ccccc53)CCN(CCC1)[C@H]42` [Compound S2] belongs 9.5.
As to `CC[C@@]12C=C(C(=O)NCCNC(=O)OCCOCCOCCOCCO)n3c4c(c5ccccc53)CCN(CCC1)[C@H]42` [Compound S65], the fold induction at 10 µM turned out to be 11.
`CC[C@@]12C=C(C(=O)N[C@@H](CC(=O)O)C(=O)O)n3c4c(c5ccccc53)CCN(CCC1)[C@H]42` [Compound S70] had a fold induction at 10 µM of 10.8.
Same read-out and setting: for `CC[C@@]12C=C(C(=O)N[C@@H](CCCCN)C(=O)OCCOCCOCCOCCO)n3c4c(c5ccccc53)CCN(CCC1)[C@H]42` [Compound S40] the value was 11.4.
The same measure, in the same setting: for `CC[C@@]12C=C(C(=O)NCC(=O)N[C@@H](CC(=O)O)C(=O)OCCOCCOCCOCCO)n3c4c(c5ccccc53)CCN(CCC1)[C@H]42` [Compound S50] the value was 11.3.
`CC[C@@]12C=C(C(=O)N[C@@H](CCC(N)=O)C(=O)OCCOCCOCCOCCO)n3c4c(c5ccccc53)CCN(CCC1)[C@H]42` [Compound S36] gave a fold induction at 10 µM of 11.7.
`CC[C@@]12C=C(C(=O)N[C@@H](C)C(=O)OC)n3c4c(c5ccccc53)CCN(CCC1)[C@H]42` [Compound S82] returned a fold induction at 10 µM of 12.5.
Same read-out and setting: to `CC[C@@]12C=C(C(=O)N[C@@H](C)C(=O)O)n3c4c(c5ccccc53)CCN(CCC1)[C@H]42` [Compound S73] belongs 12.1.
Turning to `CC[C@@]12C=C(C(=O)NCC(=O)OCCOCCOC)n3c4c(c5ccccc53)CCN(CCC1)[C@H]42` [Compound S1], the fold induction at 10 µM was 9.7.
Compound `CC[C@@]12C=C(C(=O)N[C@@H](CC(N)=O)C(=O)OCCOCCOCCOCCOC)n3c4c(c5ccccc53)CCN(CCC1)[C@H]42` [Compound S16] had a fold induction at 10 µM of 11.2.
In the case of `CC[C@@]12C=C(C(=O)NCC(=O)OCCOCCOCCOCCOCCOCCO)n3c4c(c5ccccc53)CCN(CCC1)[C@H]42` [Compound S28], the fold induction at 10 µM was 12.2.
The same measure, in the same setting: for `CC[C@@]12C=C(C(=O)OCCC(=O)OCCOCCOCCO)n3c4c(c5ccccc53)CCN(CCC1)[C@H]42` [Compound S57] the value was 10.8; for `CC[C@@]12C=C(C(=O)NCC(=O)OCCOCCOCCOCCOCCOC)n3c4c(c5ccccc53)CCN(CCC1)[C@H]42` [Compound S4], 11.5.
Take `CCC(C)[C@H](NC(=O)C1=C[C@]2(CC)CCCN3CCc4c(n1c1ccccc41)[C@@H]32)C(=O)OCCOCCOCCOCCO` (stereo partly drawn) [Compound S32]: the fold induction at 10 µM stood at 12.3.
